Source: patent US10626108B2, “Heterocyclic indoles for use in influenza virus infection” (Janssen Sciences Ireland UC, priority 2015, dated 2020)

What was measured:
in vitro = conditions: dog
[1] = tested on: influenza virus A/Taiwan/1/86 (H1N1); experiment: organism not typed; assay type: cell-based; conditions: 72 h; MDCK cells infected with influenza A/Taiwan/1/86 (H1N1), MOI 0.001 or 0.01; CPE via ATP levels three days post-virus exposure

| SMILES | CC50 at 3 days (in vitro) [nM] | IC50 [1] [nM] |
| --- | --- | --- |
| O=C(O)[C@H]1C2CCC(CC2)[C@@H]1Nc1cnnc(-c2c[nH]c3c(F)cc(F)cc23)n1 (racemic) [Compound 6] | > 5000 | 130 |
| Cc1nc(-c2c[nH]c3c(F)cc(F)cc23)nc(N[C@H]2CCC[C@@H](NC(=O)c3cn(C)cn3)C2)c1F [Compound 13] | 10400 | 1 |
| Cc1nc(-c2c[nH]c3c(F)cc(F)cc23)nc(N[C@H]2CCC[C@@H](NC(=O)c3cnn(C)c3)C2)c1F [Compound 14] | > 25000 | 2 |
| Cc1nc(-c2c[nH]c3c(F)cc(F)cc23)nc(N[C@H]2CCC[C@@H](NC(=O)c3cnn[nH]3)C2)c1F [Compound 15] | 3400 | 0.2 |
| Cc1nc(-c2c[nH]c3ncncc23)nc(N[C@@H]2CCC[C@H](NC(=O)c3ccccn3)C2)c1F [Compound 21] | > 25000 | 1 |
| O=C(N[C@H]1CCC[C@@H](Nc2cncc(-c3c[nH]c4c(F)cc(F)cc34)n2)C1)N1CCCC1 [Compound 25] | 9700 | 26 |
| O=C(N[C@H]1CCC[C@@H](Nc2cnnc(-c3c[nH]c4c(F)cc(F)cc34)n2)C1)N1CCCC1 [Compound 28] | 15500 | 8 |
| Cc1nc(-c2c[nH]c3c(F)cc(F)cc23)nc(N[C@H]2CCC[C@@H](NC(=O)c3csc(C(=O)O)n3)C2)c1F [Compound 29] | 21000 | 2 |
| O=C(N[C@H]1CCC[C@@H](Nc2nc(-c3c[nH]c4c(F)cc(F)cc34)nc(C(=O)O)c2F)C1)c1cnn[nH]1 [Compound 36] | > 25000 | 7 |
